Measured values from paper PMC6152131, “Pharmacokinetic Study of Biotransformation Products from an Anxiolytic Fraction of Tilia americana” (Molecules : A Journal of Synthetic Chemistry and Natural …, 2017).

Legend:
[1] = Plasma concentration after a single oral dose of the anxiolytic fraction (HPLC); format: in vivo, ICR mice; details: mouse, plasma, ICR mice, n = 10
Outline: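 Animals dosed orally with 200 mg/kg of active fraction; retro-orbital blood taken from separate groups of ten at 0–1440 min. Lyophilized plasma extracted in methanol and analysed by RP-18 HPLC with diode-array detection at 220 nm against a calibration curve; PK parameters from observed data, mean ± SD.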

[2] = Stability of flavonoids and biotransformation products in mouse plasma under different handling conditions; format: in vitro ADME, mice; details: for Accuracy Bias 0 h / Observed Conc. 0 h / Accuracy Bias 8 h / Observed Conc. 8 h / Accuracy Bias 24 h / Observed Conc. 24 h: room temperature (25 °C); for Observed Conc. 0 h / Observed Conc. 8 h / Observed Conc. 24 h / Observed Conc. Autosampler (4 °C; 8 h) / Observed Conc. Long-term (−70 °C; 1 month): n = 6; for Accuracy Bias Autosampler (4 °C; 8 h) / Accuracy Bias Long-term (−70°C; 1 month) / Observed Conc. Autosampler (4 °C; 8 h) / Observed Conc. Long-term (−70 °C; 1 month): storage stability
Outline: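 Mouse plasma QC samples containing the flavonoids and their biotransformation products were tested for stability across storage and handling conditions, including long-term, autosampler and bench-top tests. Samples were extracted with methanol, filtered, and analyzed by HPLC on an RP-18e column with acetonitrile–water (55:45) at 1 mL/min and detection at λ = 220 nm. Results were compared against fresh QC samples; stability required deviation below 15%.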

[3] = Pharmacokinetic analysis, two-compartment model (PKSolver); format: in vivo, ICR mice; details: two-compartment model
Method: The data shown in Table 2 were applied to the program PKSolver. After a single oral administration of 200 mg/kg of the anxiolitic fraction of T. americana, the behavior of the concentration-time data allowed us to determine the main pharmacokinetic parameters under a two-compartment model (Table 3), and the same program provided the graphical behavior of the variables and the adjustment to the two-compartment model.
To evaluate the suitability of the assay for the pharmacokinetic studies, 200 mg/kg of the active fraction was orally administered to the animals. Ten animals were used in each group at different times (0, 5, 10, 15, 30, 60, 120, 240, 480, 720, and 1440 min). Pharmacokinetic calculations were performed using the observed data. All data was subsequently processed using the PKSolver add-in program for Microsoft Excel written in Visual Basic for Applications. All values obtained were expressed in mean ± standard deviation.
For the pharmacokinetic assay, the selection was made either from a one-compartment or a two-compartment model, with the use of both the Akaike information criterion (AIC) and the Schwarz criterion (SC). Using these two criteria, one can select which model is more suited to being adjusted, to the point where it reaches the lowest values of the AIC or SC criteria, which means that the chosen model is more parsimonious (less parameters required) and best fits the data (low error prediction).

[4] = high nominal conc. (7.00; 44.37; 4.50; 31.25 µg/mL)
[5] = low nominal conc. (1.75; 11.02; 1.12; 1.95 µg/mL)
[6] = medium nominal conc. (3.50; 22.18; 2.24; 7.81 µg/mL)
[7] = mouse, oral 200 mg/kg anxiolytic fraction, ICR mice plasma
[8] = oral 200 mg/kg anxiolytic fraction, ICR mice plasma
[9] = oral 200 mg/kg anxiolytic fraction, ICR mice plasma, n = 10

concentration at 5 min ([1]; 5 min after single oral dose of 200 mg/kg of the anxiolytic fraction, ND = not detected): 5400 ± 360 ng/mL
concentration at 10 min ([1]; 10 min after single oral dose of 200 mg/kg of the anxiolytic fraction): 6710 ± 440 ng/mL
concentration at 15 min ([1]; 15 min after single oral dose of 200 mg/kg of the anxiolytic fraction): 6010 ± 330 ng/mL
concentration at 30 min ([1]; 30 min after single oral dose of 200 mg/kg of the anxiolytic fraction): 5380 ± 510 ng/mL
concentration at 60 min ([1]; 60 min after single oral dose of 200 mg/kg of the anxiolytic fraction): 5310 ± 540 ng/mL
concentration at 120 min ([1]; 120 min after single oral dose of 200 mg/kg of the anxiolytic fraction): 5290 ± 320 ng/mL
concentration at 240 min ([1]; 240 min after single oral dose of 200 mg/kg of the anxiolytic fraction): 5150 ± 230 ng/mL
concentration at 480 min ([1]; 480 min after single oral dose of 200 mg/kg of the anxiolytic fraction): 5080 ± 240 ng/mL
concentration at 720 min ([1]; 720 min after single oral dose of 200 mg/kg of the anxiolytic fraction): 4990 ± 350 ng/mL
concentration at 1440 min ([1]; 1440 min after single oral dose of 200 mg/kg of the anxiolytic fraction): 4910 ± 210 ng/mL
Accuracy Bias 0 h ([2]; high nominal conc.): 1.64%
Observed Conc. 0 h ([2]; high nominal conc. (rutin 7.00; quercetin glucoside, quercitrin, tiliroside 44.37; kaempferol 4.50; m-HPAA, p-HPAA, DOPAC 31.25 µg/mL)): 31.76 ± 0.28 µg/mL
Accuracy Bias 0 h ([2]; low nominal conc.): 1.44%
Observed Conc. 0 h ([2]; low nominal conc. (rutin 1.75; quercetin glucoside, quercitrin, tiliroside 11.02; kaempferol 1.12; m-HPAA, p-HPAA, DOPAC 1.95 µg/mL)): 1.92 ± 0.02 µg/mL
Accuracy Bias 0 h ([2]; medium nominal conc.): 0.65%
Observed Conc. 0 h ([2]; medium nominal conc. (rutin 3.50; quercetin glucoside, quercitrin, tiliroside 22.18; kaempferol 2.24; m-HPAA, p-HPAA, DOPAC 7.81 µg/mL)): 7.86 ± 0.11 µg/mL
Accuracy Bias 8 h ([2]; high nominal conc.): 1.26%
Observed Conc. 8 h [2, 4]: 31.64 ± 0.28 µg/mL
Accuracy Bias 8 h ([2]; low nominal conc.): 1.40%
Observed Conc. 8 h [2, 5]: 1.92 ± 0.02 µg/mL
Accuracy Bias 8 h ([2]; medium nominal conc.): 2.05%
Observed Conc. 8 h [2, 6]: 7.94 ± 0.11 µg/mL
Accuracy Bias 24 h ([2]; high nominal conc.): 1.26%
Observed Conc. 24 h [2, 4]: 31.64 ± 0.31 µg/mL
Accuracy Bias 24 h ([2]; low nominal conc.): 0.85%
Observed Conc. 24 h [2, 5]: 1.93 ± 0.01 µg/mL
Accuracy Bias 24 h ([2]; medium nominal conc.): 1.01%
Observed Conc. 24 h [2, 6]: 7.89 ± 0.05 µg/mL
Accuracy Bias Autosampler (4 °C; 8 h) ([2]; high nominal conc.): 1.40%
Accuracy Bias Long-term (−70°C; 1 month) ([2]; high nominal conc.): 0.85%
Observed Conc. Autosampler (4 °C; 8 h) [2, 4]: 31.64 ± 0.28 µg/mL
Observed Conc. Long-term (−70 °C; 1 month) [2, 4]: 31.64 ± 0.28 µg/mL
Accuracy Bias Autosampler (4 °C; 8 h) ([2]; low nominal conc.): 1.26%
Accuracy Bias Long-term (−70°C; 1 month) ([2]; low nominal conc.): 1.26%
Observed Conc. Autosampler (4 °C; 8 h) [2, 5]: 1.93 ± 0.02 µg/mL
Observed Conc. Long-term (−70 °C; 1 month) [2, 5]: 1.92 ± 0.01 µg/mL
Accuracy Bias Autosampler (4 °C; 8 h) ([2]; medium nominal conc.): 2.05%
Accuracy Bias Long-term (−70°C; 1 month) ([2]; medium nominal conc.): 1.01%
Observed Conc. Autosampler (4 °C; 8 h) [2, 6]: 7.89 ± 0.11 µg/mL
Observed Conc. Long-term (−70 °C; 1 month) [2, 6]: 7.97 ± 0.05 µg/mL
AUC(0-inf) [3, 7]: 183 µg·h/mL
Cmax [3, 7]: 6260 ng/mL
Tmax [3, 7]: 0.186 h
AUC(0-t) ([3]; mouse, oral 200 mg/kg anxiolytic fraction, ICR mice plasma, read-out: AUC0→1440 (converted)): 73.7 µg·h/mL
MRT ([3]; mouse, oral 200 mg/kg anxiolytic fraction, ICR mice plasma, read-out: MRT (mean residence time) (converted)): 47.2 h
k el ([3]; mouse, oral 200 mg/kg anxiolytic fraction, ICR mice plasma, read-out: k10 (apparent first-order elimination rate constant from the central compartment) (converted)): 1e-05 s⁻¹
half-life ([3]; mouse, oral 200 mg/kg anxiolytic fraction, ICR mice plasma, read-out: t1/2β): 33.2 h
CL/F (apparent clearance) [3, 8]: 0.018 (mg/Kg)/(μg/mL)/min
V/F (apparent volume of distribution) [3, 8]: 29.46 (mg/Kg)/(µg/mL)
k12 (transfer rate constant central to peripheral compartment) [3, 8]: 0.007 min⁻¹
k21 (transfer rate constant peripheral to central compartment) [3, 8]: 0.009 min⁻¹
ka (apparent first-order absorption rate constant) [3, 8]: 0.36 min⁻¹
t1/2ka (absorption half time) [3, 8]: 1.92 min
t1/2α [3, 8]: 0.7042 h
α [3, 8]: 0.02 min⁻¹
β [3, 8]: 0.0003 min⁻¹
A (plasma concentration coefficient, central compartment) [3, 9]: 3.19 µg/mL
B (plasma concentration coefficient, peripheral compartment) [3, 9]: 3.75 µg/mL
index: relation between rate constants of k12 with respect to k21 [3]: 0.77
Compound: O=C(O)Cc1ccc(O)cc1 [p-HPAA, para-hydroxyphenylacetic acid]
